Measured values: PubChem BioAssay (NCI)
Where “and” joins values, the source holds several entries; their conditions need not be identical. Equal entries are not always repeated.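 Test compounds were applied to cells in 96-well plates for 48 hours at 5 doses. At the GI50, growth is halved. TGI: concentration producing complete growth inhibition.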

What was measured:
Assay in all cases: NCI anticancer screen, dose series, 48 h
[1] = system: SW-620 colon
[2] = system: CAKI-1 renal
[3] = system: SNB-78 CNS
[4] = system: SK-MEL-28 melanoma
[5] = system: OVCAR-8 ovarian
[6] = system: HT29 colon
[7] = system: HOP-62 NSCLC
[8] = system: OVCAR-4 ovarian
[9] = system: HOP-18 NSCLC
[10] = system: HS 578T breast

SMILES | TGI [1] | TGI [2] | TGI [3] [µM] | TGI [4] [µM] | TGI [5] [µM] | TGI [6] [µM] | TGI [7] | TGI [8] [µM] | TGI [9] [µM] | TGI [10] | GI50 [7] [µM] | GI50 [1] [µM] | GI50 [2] | GI50 [4] [µM] | GI50 [5] [µM] | GI50 [6] [µM] | GI50 [8] [µM] | GI50 [10] [µM] | GI50 [3] [µM]
O=c1/c(=C/c2c(O)ccc3ccccc23)sc2nc3ccccc3n12 | > 100 µM | > 100 µM | > 100 | > 100 | > 100 | > 100 | > 100 µM | > 100 | > 100 | – | – | – | – | – | – | – | – | – | –
O=c1nc(NC(c2ccccc2)(c2ccccc2)c2ccccc2)ccn1CCCl | 48.6 µM | – | 86.7 | 28.6 | 29.7 | 35 | 40.9 µM | 53.1 | 72.1 | – | – | – | – | – | – | – | – | – | –
CSC(=Nc1ccccc1Cl)NC(=O)c1ccc(Br)cc1 | > 100 µM | 97.4 µM | 88.6 | 66.3 | > 100 | > 100 | 55.3 µM | 38.4 | 94.1 | – | – | – | – | – | – | – | – | – | –
COC1(OC)C2(Cl)C(Cl)=C(Cl)C1(Cl)C1c3ccc(C(C)=O)c4cccc(c34)C12 (stereo not given) | > 100 µM | > 100 µM | > 100 | > 100 | > 100 | > 100 | > 100 µM | > 100 | > 100 | > 100 µM | – | – | – | – | – | – | – | – | –
CC(CN1CC(=O)NC(=O)C1)N1CC(=O)NC(=O)C1 (stereo not given) | > 750 µM | > 750 µM | > 750 | > 750 | > 750 | > 687 | 709 µM | > 750 | > 511 | > 391 µM | 114 | – | – | – | – | – | – | – | –
CCO/C(CCn1[nH]c(=O)c(Cl)c(Cl)c1=O)=N\NC(=O)C(=O)NN | > 100 µM | > 100 µM | – | > 100 | > 100 | > 100 | > 100 µM | > 100 | > 100 | – | – | – | – | – | – | – | – | – | –
Cc1cc(C)nc(NS(=O)(=O)c2ccc(Nc3c4ccccc4nc4c(C(=O)Nc5ccc(S(=O)(=O)Nc6cc(C)on6)cc5)ccc(Cl)c34)cc2)n1 | – | – | > 100 | 69.4 | > 100 | 47.8 | 42.5 µM | 65.3 | – | – | – | – | – | – | – | – | – | – | –
O=C1NC(=O)C(=Cc2c3ccccc3cc3ccccc23)C(=O)N1 | > 100 µM | > 100 µM | – | > 100 | > 100 | > 100 | > 100 µM | – | > 100 | – | – | – | – | – | – | – | – | – | –
CCCCCCCCCCCC[N+](C)(C)Cc1ccccc1 | 12.1 µM | 24.8 µM | – | 4.34 | 6.75 | 3.24 | 7.27 µM | 7.68 | – | 5.96 µM | 2.69 | 2.69 | 5.84 µM | 2.06 | 2.16 | 1.23 | 1.82 | 1.95 | –
CC(=O)O[C@@]12CO[C@@H]1C[C@H](O)[C@@]1(C)C(=O)[C@H](O)C3=C(C)[C@@H](OC(=O)[C@H](O)[C@@H](NC(=O)OC(C)(C)C)c4ccccc4)C[C@@](O)([C@@H](OC(=O)c4ccccc4)C12)C3(C)C (stereo not given in full) | 50 µM and > 100 µM | 50 µM and 73.6 µM | – | 50.7 | 50 | 41.7 | 50 µM and > 100 µM | > 100 | – | 23.5 µM and > 100 µM | < 0.005 | < 0.005 | 0.225 µM and 0.181 µM | 12.7 | < 0.005 | < 0.005 | 12.6 | < 0.005 | –
CCCCCCCN(CCCCCCC)C(=N)c1ccnc2ccccc12 | 2.91 µM | 2.68 µM | – | 3.21 | 3.48 | 2.87 | 2.65 µM | 3.05 | – | 4.36 µM | 1.16 | 1.28 | 1.32 µM | 1.68 | 1.63 | 1.24 | 1.35 | 1.64 | –
Cc1ccc(NC(=O)C(=O)C(C(=O)c2ccc3ccccc3c2)C2OC(=O)c3ccccc32)c(C)c1 (stereo not given) | 21.6 µM | 32 µM | 72.6 | 31.2 | 36.8 | 57.6 | 22.4 µM | 25.6 | 29.5 | – | – | – | – | – | – | – | – | – | –
CC(C)=O.O=C([O-])C(F)(F)F.O=C([O-])C(F)(F)F.O=C([O-])C(F)(F)F.O=C([O-])C(F)(F)F.[Rh+2].[Rh+2] | > 100 µM | – | > 100 | > 100 | > 100 | > 100 | > 100 µM | > 100 | – | – | > 100 | 65.2 | – | 94.3 | 56.1 | > 100 | 69.7 | – | 49.4
COC(NC(N)=O)C(=O)O (stereo not given) | > 100 µM | > 100 µM | – | > 100 | > 100 | > 100 | > 100 µM | > 100 | – | > 100 µM | – | – | – | – | – | – | – | – | –
Cc1c(N)nc([C@H](CC(N)=O)NC[C@H](N)C(N)=O)nc1C(=O)N[C@H](C(=O)N[C@H](C)[C@@H](O)CC(=O)N[C@H](C(=O)NC(O[C@@H]1O[C@@H](C)[C@@H](N)[C@@H](O)[C@H]1O)C(O)c1nc(-c2nc(C(=O)NCCCCN)cs2)cs1)[C@@H](C)O)[C@@H](O[C@@H]1O[C@@H](CO)[C@@H](O)[C@H](O)[C@@H]1O[C@H]1O[C@H](CO)[C@@H](O)[C@H](OC(N)=O)[C@@H]1O)c1c[nH]cn1 (stereo not given in full) | > 50 µM | > 50 µM | – | > 50 | > 50 | > 50 | > 50 µM | > 50 | – | > 50 µM | – | – | – | – | – | – | – | – | –
